In brackets after ≈: the same amount, converted by molar mass. Where two headings read alike, the source gives them in different places.
Key:
[1] = tested on: clinical MDR Staphylococcus epidermidis isolates; test: MIC, broth microdilution, 81 clinical MDR strains; assay type: cell-based; settings: Staphylococcus epidermidis
Procedure, shortened: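 MICs were determined by twofold broth microdilution in cation-adjusted Mueller-Hinton II broth per EUCAST, over 50–0.1 µg/mL, in duplicate. Compounds were tested as free bases dissolved in DMSO; MIC50 and MIC90 were derived across the 81 clinical MDR S. epidermidis strains.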

[2] = tested on: Staphylococcus aureus ATCC BAA-976; test: MIC, broth microdilution, MDR/BPSA reference strain; assay type: cell-based; settings: ATCCBAA976; Staphylococcus aureus ATCC BAA-976; read-out: MIC MDR/BPSA
Procedure, shortened: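 Compounds tested as free bases dissolved in DMSO (1 mg/mL stock); determinations done twice; linezolid as positive control.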

horse red blood cells = test: Hemolytic activity assay
Experimental: 2.3.3 Hemolytic activity assay
The hemolytic properties of tested compound were evaluated according to previously reported procedure.6 Defibrinated horse red blood cells purchased from Thermo Fisher Scientific (Germany) were washed with PBS (3000 rpm, 10 min at 4 °C) for three times followed by PBS dilution to obtain a 8% suspension. Then, 100 μL of the resulting suspensions […]
were treated with 100 μL of tested compound at the final concentration of 200 μM, and incubated at 37 °C for 1 h. Triton X-100 (2%) and PBS were used as positive and negative controls, respectively. After centrifugation at 3000 rpm for 3 min, 100 μL of the supernatants were transferred to a 96 well microtiter plate and the hemoglobin release was determined in a SpectraMax iD3 reader (Molecular Devices) by absorption at 540 nm. […]

Compound: O=S(=O)(NC1CCN(CCC(Oc2ccc(C(F)(F)F)cc2)c2cccs2)CC1)c1cccc(Cl)c1 (stereo not drawn) [Compound 14]
- MIC ([1]; clinical strain 1 (Table S2), read-out: MIC): 0.1 µg/mL (≈ 0.179 µM)
- MIC ([1]; clinical strain 2 (Table S2), read-out: MIC): 0.4 µg/mL (≈ 0.715 µM)
- MIC ([1]; clinical strain 3 (Table S2), read-out: MIC): 0.8 µg/mL (≈ 1.43 µM)
- MIC ([1]; clinical strain 4 (Table S2), read-out: MIC): 1.6 µg/mL (≈ 2.86 µM)
- MIC ([1]; clinical strain 5 (Table S2), read-out: MIC): 3.12 µg/mL (≈ 5.59 µM)
- MIC ([1]; clinical strain 6 (Table S2), read-out: MIC): 0.8 µg/mL (≈ 1.43 µM)
- MIC ([1]; clinical strain 7 (Table S2), read-out: MIC): 3.12 µg/mL (≈ 5.59 µM)
- MIC ([1]; clinical strain 8 (Table S2), read-out: MIC): 1.6 µg/mL (≈ 2.86 µM)
- MIC ([1]; clinical strain 9 (Table S2), read-out: MIC): 1.6 µg/mL (≈ 2.86 µM)
- MIC ([1]; clinical strain 10 (Table S2), read-out: MIC): 3.12 µg/mL (≈ 5.59 µM)
- MIC ([1]; clinical strain 11 (Table S2), read-out: MIC): 3.12 µg/mL (≈ 5.59 µM)
- MIC ([1]; clinical strain 12 (Table S2), read-out: MIC): 6.25 µg/mL (≈ 11.2 µM)
- MIC ([1]; clinical strain 13 (Table S2), read-out: MIC): 6.25 µg/mL (≈ 11.2 µM)
- MIC ([1]; clinical strain 14 (Table S2), read-out: MIC): 6.25 µg/mL (≈ 11.2 µM)
- MIC ([1]; clinical strain 15 (Table S2), read-out: MIC): 1.6 µg/mL (≈ 2.86 µM)
- MIC ([1]; clinical strain 16 (Table S2), read-out: MIC): 1.6 µg/mL (≈ 2.86 µM)
- MIC ([1]; clinical strain 17 (Table S2), read-out: MIC): 3.12 µg/mL (≈ 5.59 µM)
- MIC ([1]; clinical strain 18 (Table S2), read-out: MIC): 3.12 µg/mL (≈ 5.59 µM)
- MIC ([1]; clinical strain 19 (Table S2), read-out: MIC): 3.12 µg/mL (≈ 5.59 µM)
- MIC ([1]; clinical strain 20 (Table S2), read-out: MIC): 1.6 µg/mL (≈ 2.86 µM)
- MIC ([1]; clinical strain 21 (Table S2), read-out: MIC): 3.12 µg/mL (≈ 5.59 µM)
- MIC ([1]; clinical strain 22 (Table S2), read-out: MIC): 6.25 µg/mL (≈ 11.2 µM)
- MIC ([1]; clinical strain 23 (Table S2), read-out: MIC): 12.5 µg/mL (≈ 22.4 µM)
- MIC ([1]; clinical strain 24 (Table S2), read-out: MIC): 6.25 µg/mL (≈ 11.2 µM)
- MIC ([1]; clinical strain 25 (Table S2), read-out: MIC): 6.25 µg/mL (≈ 11.2 µM)
- MIC ([1]; clinical strain 26 (Table S2), read-out: MIC): 6.25 µg/mL (≈ 11.2 µM)
- MIC ([1]; clinical strain 27 (Table S2), read-out: MIC): 3.12 µg/mL (≈ 5.59 µM)
- MIC ([1]; clinical strain 28 (Table S2), read-out: MIC): 12.5 µg/mL (≈ 22.4 µM)
- MIC ([1]; clinical strain 29 (Table S2), read-out: MIC): 12.5 µg/mL (≈ 22.4 µM)
- MIC ([1]; clinical strain 30 (Table S2), read-out: MIC): 12.5 µg/mL (≈ 22.4 µM)
- MIC ([1]; clinical strain 31 (Table S2), read-out: MIC): 12.5 µg/mL (≈ 22.4 µM)
- MIC ([1]; clinical strain 32 (Table S2), read-out: MIC): 6.25 µg/mL (≈ 11.2 µM)
- MIC ([1]; clinical strain 33 (Table S2), read-out: MIC): 3.12 µg/mL (≈ 5.59 µM)
- MIC ([1]; clinical strain 34 (Table S2), read-out: MIC): 12.5 µg/mL (≈ 22.4 µM)
- MIC ([1]; clinical strain 35 (Table S2), read-out: MIC): 12.5 µg/mL (≈ 22.4 µM)
- MIC ([1]; clinical strain 36 (Table S2), read-out: MIC): 50 µg/mL (≈ 89.4 µM)
- MIC ([1]; clinical strain 37 (Table S2), read-out: MIC): 12.5 µg/mL (≈ 22.4 µM)
- MIC ([1]; clinical strain 38 (Table S2), read-out: MIC): 12.5 µg/mL (≈ 22.4 µM)
- MIC ([1]; clinical strain 39 (Table S2), read-out: MIC): 12.5 µg/mL (≈ 22.4 µM)
- MIC ([1]; clinical strain 40 (Table S2), read-out: MIC): 25 µg/mL (≈ 44.7 µM)
- MIC ([1]; clinical strain 41 (Table S2), read-out: MIC): 25 µg/mL (≈ 44.7 µM)
- MIC ([1]; clinical strain 42 (Table S2), read-out: MIC): 12.5 µg/mL (≈ 22.4 µM)
- MIC ([1]; clinical strain 43 (Table S2), read-out: MIC): 25 µg/mL (≈ 44.7 µM)
- MIC ([1]; clinical strain 44 (Table S2), read-out: MIC): 50 µg/mL (≈ 89.4 µM)
- MIC ([1]; clinical strain 45 (Table S2), read-out: MIC): 25 µg/mL (≈ 44.7 µM)
- MIC ([1]; clinical strain 46 (Table S2), read-out: MIC): 50 µg/mL (≈ 89.4 µM)
- MIC ([1]; clinical strain 47 (Table S2), read-out: MIC): 25 µg/mL (≈ 44.7 µM)
- MIC ([1]; clinical strain 48 (Table S2), read-out: MIC): 3.12 µg/mL (≈ 5.59 µM)
- MIC ([1]; clinical strain 49 (Table S2), read-out: MIC): 0.1 µg/mL (≈ 0.179 µM)
- MIC ([1]; clinical strain 50 (Table S2), read-out: MIC): 50 µg/mL (≈ 89.4 µM)
- MIC ([1]; clinical strain 51 (Table S2), read-out: MIC): 50 µg/mL (≈ 89.4 µM)
- MIC ([1]; clinical strain 52 (Table S2), read-out: MIC): 3.12 µg/mL (≈ 5.59 µM)
- MIC ([1]; clinical strain 53 (Table S2), read-out: MIC): 12.5 µg/mL (≈ 22.4 µM)
- MIC ([1]; clinical strain 54 (Table S2), read-out: MIC): 12.5 µg/mL (≈ 22.4 µM)
- MIC ([1]; clinical strain 55 (Table S2), read-out: MIC): 50 µg/mL (≈ 89.4 µM)
- MIC ([1]; clinical strain 56 (Table S2), read-out: MIC): 3.12 µg/mL (≈ 5.59 µM)
- MIC ([1]; clinical strain 57 (Table S2), read-out: MIC): 12.5 µg/mL (≈ 22.4 µM)
- MIC ([1]; clinical strain 58 (Table S2), read-out: MIC): 6.25 µg/mL (≈ 11.2 µM)
- MIC ([1]; clinical strain 59 (Table S2), read-out: MIC): 50 µg/mL (≈ 89.4 µM)
- MIC ([1]; clinical strain 60 (Table S2), read-out: MIC): 3.12 µg/mL (≈ 5.59 µM)
- MIC ([1]; clinical strain 61 (Table S2), read-out: MIC): 50 µg/mL (≈ 89.4 µM)
- MIC ([1]; clinical strain 62 (Table S2), read-out: MIC): 6.25 µg/mL (≈ 11.2 µM)
- MIC ([1]; clinical strain 63 (Table S2), read-out: MIC): 0.4 µg/mL (≈ 0.715 µM)
- MIC ([1]; clinical strain 64 (Table S2), read-out: MIC): 6.25 µg/mL (≈ 11.2 µM)
- MIC ([1]; clinical strain 65 (Table S2), read-out: MIC): 6.25 µg/mL (≈ 11.2 µM)
- MIC ([1]; clinical strain 66 (Table S2), read-out: MIC): 50 µg/mL (≈ 89.4 µM)
- MIC ([1]; clinical strain 67 (Table S2), read-out: MIC): 50 µg/mL (≈ 89.4 µM)
- MIC ([1]; clinical strain 68 (Table S2), read-out: MIC): 50 µg/mL (≈ 89.4 µM)
- MIC ([1]; clinical strain 69 (Table S2), read-out: MIC): 3.12 µg/mL (≈ 5.59 µM)
- MIC ([1]; clinical strain 70 (Table S2), read-out: MIC): 50 µg/mL (≈ 89.4 µM)
- MIC ([1]; clinical strain 71 (Table S2), read-out: MIC): 50 µg/mL (≈ 89.4 µM)
- MIC ([1]; clinical strain 72 (Table S2), read-out: MIC): 3.12 µg/mL (≈ 5.59 µM)
- MIC ([1]; clinical strain 73 (Table S2), read-out: MIC): 0.8 µg/mL (≈ 1.43 µM)
- MIC ([1]; clinical strain 74 (Table S2), read-out: MIC): 50 µg/mL (≈ 89.4 µM)
- MIC ([1]; clinical strain 75 (Table S2), read-out: MIC): 6.25 µg/mL (≈ 11.2 µM)
- MIC ([1]; clinical strain 76 (Table S2), read-out: MIC): 3.12 µg/mL (≈ 5.59 µM)
- MIC ([1]; clinical strain 77 (Table S2), read-out: MIC): 6.25 µg/mL (≈ 11.2 µM)
- MIC ([1]; clinical strain 78 (Table S2), read-out: MIC): 6.25 µg/mL (≈ 11.2 µM)
- MIC ([1]; clinical strain 79 (Table S2), read-out: MIC): 6.25 µg/mL (≈ 11.2 µM)
- MIC ([1]; clinical strain 80 (Table S2), read-out: MIC): 12.5 µg/mL (≈ 22.4 µM)
- MIC ([1]; clinical strain 81 (Table S2), read-out: MIC): 6.25 µg/mL (≈ 11.2 µM)
- MIC ([1]; mean of MIC values against clinical MDR-SE isolates, read-out: mean MIC): 10 µg/mL (≈ 17.9 µM)
- MIC50 ([1]; 81 clinical strains, concentration inhibiting growth of 50% clinical isolates): 6.25 µg/mL (≈ 11.2 µM)
- MIC90 ([1]; 81 clinical strains, concentration inhibiting growth of 90% of clinical isolates): 50 µg/mL (≈ 89.4 µM)
- MIC [2]: 12.5 µg/mL (≈ 22.4 µM)
- %hem (hemolytic activity) (horse red blood cells; 200 μM, 1 h, n = 3): 0.27%
- lysis of erythrocytes (horse red blood cells; concentrations up to 200 μM): None of them caused lysis of erythrocytes
